# Assay results: patent publication US20240335539A1, “MODULATION OF BCL-2 TO ENHANCE CHIMERIC ANTIGEN RECEPTOR CANCER IMMUNOTHERAPY EFFICACY” (The Trustees of the University of Pennsylvania, priority 2021, published 2024)
# Like-named read-outs stand apart in the source and are kept apart here.
# Experiments:
# [1] = test system: MINO; assay: Venetoclax-mediated killing, bioluminescence cytotoxicity assay, 48 hours; type: cell-based
# Method: (§1) FIGS. 2A-2F illustrate the finding that venetoclax and CART19 as a single agent induces concentration- and dose-dependent tumor killing. Luciferase-expressing cancer cells (5×10^4 cells/well) were co-cultured with either various concentrations of venetoclax or different doses of CART19 for 48 hours and luminescence was used to quantify the tumor killing. After 48 hours, luciferin was added to the cells and luminescence was detected using a luminometer (Biotek Synergy H4). Tumor killing (%) was calculated using the formula: (sample−maximal tumor growth)/(lysis control−maximal tumor growth)×100. […] E:T=ratio of effector to target. EC50: Half-maximal effective concentration. CART19: anti-CD19 CAR T cell.
# (§2) Cell lines (MINO, Z-138, MAVER, OCI-Ly18, SU-DHL-4, NALM6, MOLM-14 and KG-1) were engineered to express click beetle green, and cell survival was measured using bioluminescence quantification. D-luciferin potassium salt (Perkin-Elmer) was added to cell cultures (final concentration 15 μg/mL) and incubated at 37° C. for 10 minutes. Bioluminescence signal was detected using a BioTek Synergy H4 imager, and signal was analyzed using BioTek Gen5 software. Percent specific lysis was calculated using a control of target cells without effectors. Cytotoxicity assays were established as previously described (Singh, et al., Cancer Discovery 2020; 10(4):552-67) with the addition of vehicle or venetoclax.
# (§3) CART19 cells were co-cultured with either vehicle (DMSO) or venetoclax and cytotoxicity was measured at 48 hours. […] This effect was further confirmed using primary NHL cells (MCL) (FIG. 1D). […] Furthermore, to confirm the importance of the BCL-2 pathway in resistance to CART killing, overexpression of BCL-2 was induced in B-cell lymphoma and leukemia cell lines (MINO, SU-DHL-4, and NALM-6) that lack genetic alterations of BCL-2. BCL-2 overexpression led to a significant reduction of tumor killing by CART cell in all models, in particular the venetoclax medium sensitive model (MINO) (FIGS. 4A-4C).
# [2] = test system: NALM6; assay: as above; type: cell-based; details: Homo sapiens, NALM-6, read-out: half-maximal inhibitory concentration (IC50)
# Method: as §1, §2, §3
# [3] = test system: OCI-Ly18; assay: as above; type: cell-based; details: Homo sapiens, read-out: half-maximal inhibitory concentration (IC50)
# Method: as §1, §2, §3
# [4] = test system: CART19; assay: In vitro venetoclax CART cell toxicity assay; type: cell-based, human; details: for IC50: Homo sapiens
# Method: (§4) CART cells were combined with target cancer cells at an E:T ratio of 0.25:1, and co-cultures were evaluated for absolute count of T cells and cancer cells by flow cytometry using CountBright absolute counting beads (ThermoFisher) every three days. Cultures were maintained at a concentration of 1×10^6 total cells/mL. To monitor their differentiation status, CART cells were harvested on day 0, 9, and 18. Next, CART cells were stained with anti-CCR7 and anti-CD45RA antibodies for flow cytometric analysis. CART cells were re-stimulated by PMA/Ionomycin on day 18 after initial stimulation in order to evaluate the anti-tumor activity of long-survived CART cells.
# To investigate this hypothesis, the expansion and persistence of CART19 cells in the peripheral blood of NSG mice treated with CART19 plus venetoclax or CART19 alone was analyzed using flow cytometry. […] To test whether prolonged exposure to venetoclax leads to CART cell toxicity, an in vitro venetoclax toxicity assay was performed using CART cells manufactured from 8 different T cell donors. […] Of note, the level of toxicity to CART cells varied among the different T cell donors, likely due to different apoptotic priming statuses at baseline. […] In order to discern whether the reduced survival was due to increased apoptosis or reduction of proliferation, the caspase 3/7 activity in CART19 was assessed in the presence or absence of venetoclax. […] Overall, these studies indicate that the higher doses of venetoclax required to suppress neoplasms with venetoclax resistance can cause apoptosis in CART19 cells. However, the BCL-2 pathway is a critical node for cancer resistance to CART immunotherapy and venetoclax can be toxic to CART cells. Thus, a different approach to overcome the limitation of targeting BCL-2 combined with CART immunotherapy was needed.
# (§5) Correct expression of the transgenes in target cells was confirmed by intracellular staining for CAR19 and BCL-2 using flow cytometry (FIG. 10B). […] Additionally, venetoclax CART cell toxicity assays were performed to evaluate whether the mutant BCL-2 could provide resistance to venetoclax.
# [5] = test system: CART19-BCL-2(WT); assay: In vitro venetoclax CART cell toxicity assay; type: cell-based; details: Homo sapiens; venetoclax on CART19-BCL-2(WT); long-term in vitro assay; n=3 donors; read-out: average IC50 value (CART cell survival)
# Method: as §4, §5
# [6] = patient treated with venetoclax (Jones et al. 2016); cited from earlier work
# [7] = test system: MINO; assay: MINO xenograft model; details: venetoclax 50 mg/Kg
# Method: For the MINO model, CART cells (5×10^4) were infused 14 days after luciferase+MINO cells were implanted (i.v. injection). […] Either vehicle or venetoclax (50 mg/kg/daily) was administrated for 5 weeks via oral gavage. […] All data represent mean±SD.
# All data represent mean±SD.
# CART cells (5×10^4) were infused 14 days after luciferase+MINO cell i.v. injection. […] All data represent mean±SD. One-way ANOVA with posthoc Tukey tests was performed for all comparisons.
# Six- to 10-week-old NOD SCID γ chain −/− (NSG) mice were obtained from the Stem Cell & Xenograft Core at the University of Pennsylvania and maintained in pathogen-free conditions. […] For the systemic tumor model, 1×10^6 of either NALM6 or MINO were administrated to NSG mice by tail vein injection.
# [8] = test system: NALM6; assay: Targeted pro-apoptotic small molecule screening with CART19 against NALM6, killing by luminescence at 48 hours; details: drug 100 and 1000 nM with CART19
# Method: Killing of NALM6 cells was quantified at 48 hours by luminescence. Drug screening of pro-apoptotic small molecules was performed with two concentrations (100 and 1000 nM). […] Two concentrations of 29 drugs were used (100 nM and 1000 nM). Killing of NALM6 cells was assessed at 48 hours by luminescence. […] UTD: untransduced T cells; CART19: anti-CD19 CAR T cell; MCL: mantle cell lymphoma; E:T=ratio of effector to target; IAP: Inhibition of apoptosis protein.
# CART19 and NALM6 (luciferase+) cells were seeded at a ratio of 0.08E:1T (i.e., 600 CART: 7000 NALM6) per well in 25 μl of growth medium (RPMI1640+10% FBS+1% Pen-strep+1% glutamine) of 384-well Corning 3570 microplate using a Multidrop™ Combi Reagent Dispenser (Thermo Scientific). Following cell seeding, drugs (50 nL) were transferred to assay plates using a 50 nL slotted pin tool (V&P Scientific) and a JANUS Automated Workstation (Perkin Elmer). Compounds/drugs were added to a final concentration of 1 μM in 0.2% DMSO. Columns 1 and 23 were treated with 0.2% DMSO (negative control). […] Luminescence was measured on an EnVision Xcite Multilabel Plate Reader (PerkinElmer), using the ultrasensitive luminescence measurement technology.
# In order to screen pro-apoptotic small molecules that can enhance CART cell killing, a targeted screening assay was performed. […] Tumor killing was measured by luminescence at 48 hours.
compound,measurement,setting,value
CC1(C)CCC(CN2CCN(c3ccc(C(=O)NS(=O)(=O)c4ccc(NCC5CCOCC5)c([N+](=O)[O-])c4)c(Oc4cnc5[nH]ccc5c4)c3)CC2)=C(c2ccc(Cl)cc2)C1 [venetoclax],IC50,"[1]; Homo sapiens, MINO, 48 hours, read-out: half-maximal inhibitory concentration (IC50)",68.2 nM
same,IC50 for MINO relative to OCI-Ly18,[1]; MINO vs OCI-Ly18,5 fold
same,IC50,[2],1300 nM
same,IC50,[3],18.5 nM
same,Survival of CART19 cells,"[4]; 5 days of co-culture, CART cells from 8 donors",significant reduction in the survival of CART19 cells
same,IC50,"[4]; healthy donor-derived CAR T cell, read-out: average value of the IC50 concentration",600 nM
same,IC50,"[4]; venetoclax on CART19, long-term in vitro assay, n=3 donors, read-out: average IC50 value (CART cell survival)",131 nM
same,Caspase 3/7 activation in CART cells,[4]; venetoclax present vs absent,significant caspase 3/7 activation in CART cells
same,IC50,[5],998 nM
same,physiological concentration in a patient,[6],around 2.3 M
same,Toxicity to CART cells in vivo,[7],toxic to CART19
same,Enhancement of CART19 killing / CART cell cytotoxicity,[8],strong enhancement of CART19 killing
